Laboratory results reported in US6462178B1, “G protein” (Yong Hou Wong, priority 1999, dated 2002).
Where two headings read alike, the source gives them in different places. Values belong to the compound of their own block, whether it stands above or below them.

Tests used:
melatonin Mel1c receptor = target: T1, melatonin Mel1c receptor (Xenopus laevis, UniProt P49219); test: IP accumulation, melatonin Mel1c receptor coexpressed with Gα subunit in COS-7; type: cell-based; details: for IP Formation Agonist / IP Formation % Res.: 1 μM 2-iodomelatonin; for IP Formation % Res.: relative to basal
T1 construct: expressed in transfected cells; host or cells: COS-7
T1 sequence (P49219 1-420): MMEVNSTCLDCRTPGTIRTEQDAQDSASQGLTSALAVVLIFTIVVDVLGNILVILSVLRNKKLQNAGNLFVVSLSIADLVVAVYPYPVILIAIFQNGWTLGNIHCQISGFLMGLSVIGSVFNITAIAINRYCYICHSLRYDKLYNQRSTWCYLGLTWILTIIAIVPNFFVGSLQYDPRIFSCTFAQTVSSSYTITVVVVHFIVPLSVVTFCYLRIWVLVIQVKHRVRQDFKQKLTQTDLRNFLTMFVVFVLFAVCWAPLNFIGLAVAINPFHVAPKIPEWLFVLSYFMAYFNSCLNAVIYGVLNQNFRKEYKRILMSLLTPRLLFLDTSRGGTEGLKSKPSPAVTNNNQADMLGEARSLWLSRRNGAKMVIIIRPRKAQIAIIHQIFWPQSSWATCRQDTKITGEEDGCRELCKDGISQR

melatonin Mel1a receptor = target: T2, melatonin Mel1a receptor (Homo sapiens, UniProt P48039); test: IP accumulation, melatonin Mel1a receptor coexpressed with Gα subunit in COS-7; type: cell-based; details: 1 μM 2-iodomelatonin; for IP Formation % Res.: relative to basal
T2 construct: expressed in transfected cells; host or cells: COS-7
T2 sequence (P48039 whole entry): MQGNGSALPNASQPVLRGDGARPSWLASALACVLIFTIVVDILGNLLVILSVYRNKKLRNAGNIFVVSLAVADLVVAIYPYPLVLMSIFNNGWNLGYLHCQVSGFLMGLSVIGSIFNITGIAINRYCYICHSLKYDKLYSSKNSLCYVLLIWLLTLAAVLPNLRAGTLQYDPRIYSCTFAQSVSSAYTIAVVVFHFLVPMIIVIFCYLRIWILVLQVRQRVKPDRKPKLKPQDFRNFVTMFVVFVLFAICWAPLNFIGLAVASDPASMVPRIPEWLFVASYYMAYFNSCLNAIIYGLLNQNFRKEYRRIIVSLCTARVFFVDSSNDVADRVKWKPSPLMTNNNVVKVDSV

melatonin Mel1b receptor = target: T3, melatonin Mel1b receptor (Homo sapiens, UniProt P49286); test: IP accumulation, melatonin Mel1b receptor coexpressed with Gα subunit in COS-7; type: cell-based; details: 1 μM 2-iodomelatonin; for IP Formation % Res.: relative to basal
T3 construct: expressed in transfected cells; host or cells: COS-7
T3 sequence (P49286 1-362): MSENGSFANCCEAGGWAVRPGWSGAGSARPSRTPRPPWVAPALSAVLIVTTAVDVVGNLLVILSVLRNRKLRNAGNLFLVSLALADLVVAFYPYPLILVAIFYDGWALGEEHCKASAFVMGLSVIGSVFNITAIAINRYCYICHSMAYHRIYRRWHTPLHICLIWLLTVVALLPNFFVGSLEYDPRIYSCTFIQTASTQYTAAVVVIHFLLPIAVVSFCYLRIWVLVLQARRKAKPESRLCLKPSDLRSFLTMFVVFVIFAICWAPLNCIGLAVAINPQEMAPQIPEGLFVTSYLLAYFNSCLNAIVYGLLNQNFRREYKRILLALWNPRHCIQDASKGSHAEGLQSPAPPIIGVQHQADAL

α2-adrenergic receptor = details: 1 μM UK14,304; for IP Formation % Res.: relative to basal
[1] = target: formyl peptide (fMLP) receptor
δ-opioid receptor [2] = target: δ-opioid receptor
δ-opioid receptor [3] = target: δ-opioid receptor; remark: listed apart in the source
[4] = COS-7, receptor + 16z25 chimera
[5] = COS-7, receptor + 16z44 chimera

Compound: COc1ccc2[nH]c(I)c(CCNC(C)=O)c2c1 [2-iodomelatonin]
EC50 (melatonin Mel1c receptor; COS-7, Mel1c + 16z44, read-out: EC50, formation of IP): ~0.4 nM | stimulation of PLC activity (melatonin Mel1c receptor; COS-7, Mel1c + Gα16, 0.03-100 nM): did not stimulate PLC activity | IP Formation Agonist (melatonin Mel1c receptor; [4]): 42.5 ± 6.7 | IP Formation % Res. (melatonin Mel1c receptor; [4]): 270% | IP Formation Agonist (melatonin Mel1c receptor; [5]): 86.8 ± 7.0 | IP Formation % Res. (melatonin Mel1c receptor; [5]): 307% | IP Formation % Res. (melatonin Mel1c receptor; COS-7, receptor + Gα16): 115% | IP Formation Agonist (melatonin Mel1a receptor; [4]): 80.4 ± 4.0 | IP Formation % Res. (melatonin Mel1a receptor; [4]): 150% | IP Formation Agonist (melatonin Mel1a receptor; [5]): 91.9 ± 8.8 | IP Formation % Res. (melatonin Mel1a receptor; [5]): 171% | IP Formation Agonist (melatonin Mel1a receptor; COS-7, receptor + Gα16): 45.6 ± 6.0 | IP Formation % Res. (melatonin Mel1a receptor; COS-7, receptor + Gα16): 296% | IP Formation Agonist (melatonin Mel1b receptor; [4]): 108.3 ± 3.6 | IP Formation % Res. (melatonin Mel1b receptor; [4]): 155% | IP Formation Agonist (melatonin Mel1b receptor; [5]): 113.2 ± 7.3 | IP Formation % Res. (melatonin Mel1b receptor; [5]): 177% | IP Formation Agonist (melatonin Mel1b receptor; COS-7, receptor + Gα16): 31.7 ± 2.3 | IP Formation % Res. (melatonin Mel1b receptor; COS-7, receptor + Gα16): 195%

Compound: Brc1c(NC2=NCCN2)ccc2nccnc12 [UK14,304]
IP Formation Agonist (α2-adrenergic receptor; [4]): 116.1 ± 8.8 | IP Formation % Res. (α2-adrenergic receptor; [4]): 365% | IP Formation Agonist (α2-adrenergic receptor; [5]): 126.7 ± 1.5 | IP Formation % Res. (α2-adrenergic receptor; [5]): 297% | IP Formation Agonist (α2-adrenergic receptor; COS-7, receptor + Gα16): 107.4 ± 9.6 | IP Formation % Res. (α2-adrenergic receptor; COS-7, receptor + Gα16): 730%

Compound: [D-Pen^2,D-Pen^5]enkephalin (peptide)
EC50 for IP formation (cells coexpressing 16z44) (δ-opioid receptor [2]): 10 nM | EC50 for IP formation (cells coexpressing Gα16) (δ-opioid receptor [2]): 40 nM | IP formation with agonist (cells coexpressing 16z44) (IP formation (unit not given)) (δ-opioid receptor [3]): 122

The remaining lines, values ahead:

IP formation with agonist (cells coexpressing 16z44) (IP formation (unit not given)) (complement C5a receptor): 87.4
Compound: C5a (ligand)

IP formation with agonist (cells coexpressing 16z44) (IP formation (unit not given)) [1]: 91.6
Compound: N-formylmethionyl-leucyl-phenylalanine (peptide)

IP formation with agonist (cells coexpressing 16z44) (IP formation (unit not given)) (µ-opioid receptor): 68.5
Compound: [D-Ala^2,N-Me-Phe^4,Gly^5-ol]enkephalin (peptide)
